# In the kinase profiling compilation of Christmann-Franck et al. (2016):
# Legend:
# Test in all cases: KINOMEscan competition binding
# Conditions in all cases: compound 10.0 µM
# ACVR1 (human) = ACVR1 (human) (UniProt Q04771)
# ADCK3 (human) = ADCK3 (human) (UniProt Q8NI60)
# AURKB (human) = AURKB (human) (UniProt Q96GD4)
# CLK2 (human) = CLK2 (human) (UniProt P49760)
# DSTYK (human) = DSTYK (human) (UniProt Q6XUX3)
# DYRK1A (human) = DYRK1A (human) (UniProt Q13627)
# ERBB2 (human) = ERBB2 (human) (UniProt P04626)
# [1] = test system: FLT3 (human), P36888 [R834Q]
# GAK (human) = GAK (human) (UniProt O14976)
# HCK (human) = HCK (human) (UniProt P08631)
# HIPK4 (human) = HIPK4 (human) (UniProt Q8NE63)
# IRAK1 (human) = IRAK1 (human) (UniProt P51617)
# LIMK2 (human) = LIMK2 (human) (UniProt P53671)
# MAP3K7 (human) = MAP3K7 (human) (UniProt O43318)
# MAPK12 (human) = MAPK12 (human) (UniProt P53778)
# MAPK13 (human) = MAPK13 (human) (UniProt O15264)
# MAPK14 (human) = MAPK14 (human) (UniProt Q16539)
# MARK2 (human) = MARK2 (human) (UniProt Q7KZI7)
# [2] = test system: MET (human), P08581 [Y1235D]
# MINK1 (human) = MINK1 (human) (UniProt Q8N4C8)
# MTOR (human) = MTOR (human) (UniProt P42345)
# OXSR1 (human) = OXSR1 (human) (UniProt O95747)
# PAK7 (human) = PAK7 (human) (UniProt Q9P286)
# PDPK1 (human) = PDPK1 (human) (UniProt O15530)
# PIK3CB (human) = PIK3CB (human) (UniProt P42338)
# PRPF4B (human) = PRPF4B (human) (UniProt Q13523)
# RIOK3 (human) = RIOK3 (human) (UniProt O14730)
# RIPK2 (human) = RIPK2 (human) (UniProt O43353)
# RPS6KA5 KD1 (human) = RPS6KA5 KD1 (human) (UniProt O75582)
# SRMS (human) = SRMS (human) (UniProt Q9H3Y6)
# STK10 (human) = STK10 (human) (UniProt O94804)
# STK35 (human) = STK35 (human) (UniProt Q8TDR2)
# TGFBR1 (human) = TGFBR1 (human) (UniProt P36897)
# TIE1 (human) = TIE1 (human) (UniProt P35590)
# TLK2 (human) = TLK2 (human) (UniProt Q86UE8)
# [3] = target: TYK2 JH2 pseudokinase (human) (UniProt P29597)
# TYRO3 (human) = TYRO3 (human) (UniProt Q06418)
# [4] = test system: KIT (human), P10721 [L576P]
# STK3 (human) = STK3 (human) (UniProt Q13188)
# KIT (human) = KIT (human) (UniProt P10721)
# PDPK1 (human), sequence (O15530 whole entry, looked up): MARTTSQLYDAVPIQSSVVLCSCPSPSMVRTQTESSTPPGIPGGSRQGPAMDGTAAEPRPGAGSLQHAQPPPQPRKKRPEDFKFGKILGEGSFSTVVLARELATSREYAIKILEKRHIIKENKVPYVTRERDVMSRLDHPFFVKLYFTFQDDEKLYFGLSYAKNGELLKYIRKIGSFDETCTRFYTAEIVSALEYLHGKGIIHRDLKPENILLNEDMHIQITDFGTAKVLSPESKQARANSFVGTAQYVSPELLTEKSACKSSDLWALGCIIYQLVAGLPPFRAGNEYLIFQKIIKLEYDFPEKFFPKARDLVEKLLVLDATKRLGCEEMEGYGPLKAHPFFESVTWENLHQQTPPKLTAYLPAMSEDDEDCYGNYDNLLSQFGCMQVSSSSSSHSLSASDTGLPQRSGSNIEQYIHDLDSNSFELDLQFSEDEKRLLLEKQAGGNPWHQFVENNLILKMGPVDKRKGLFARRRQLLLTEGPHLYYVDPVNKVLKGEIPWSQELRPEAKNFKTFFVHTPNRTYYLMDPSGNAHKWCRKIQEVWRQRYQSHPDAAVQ
# OXSR1 (human), sequence (O95747 whole entry, looked up): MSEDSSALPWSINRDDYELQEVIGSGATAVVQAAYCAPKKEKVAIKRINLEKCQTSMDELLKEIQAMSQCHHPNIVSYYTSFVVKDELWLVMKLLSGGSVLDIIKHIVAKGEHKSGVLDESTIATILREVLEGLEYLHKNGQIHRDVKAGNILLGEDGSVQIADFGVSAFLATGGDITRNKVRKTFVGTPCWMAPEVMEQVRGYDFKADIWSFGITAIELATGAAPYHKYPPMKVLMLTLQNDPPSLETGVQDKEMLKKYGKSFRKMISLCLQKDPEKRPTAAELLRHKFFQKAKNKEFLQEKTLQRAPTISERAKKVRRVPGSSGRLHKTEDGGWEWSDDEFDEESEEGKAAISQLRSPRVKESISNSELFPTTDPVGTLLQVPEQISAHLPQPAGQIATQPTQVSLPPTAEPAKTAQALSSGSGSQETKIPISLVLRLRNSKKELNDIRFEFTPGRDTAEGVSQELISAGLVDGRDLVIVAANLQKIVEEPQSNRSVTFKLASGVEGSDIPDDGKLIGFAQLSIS
# PIK3CB (human), sequence (P42338 whole entry, looked up): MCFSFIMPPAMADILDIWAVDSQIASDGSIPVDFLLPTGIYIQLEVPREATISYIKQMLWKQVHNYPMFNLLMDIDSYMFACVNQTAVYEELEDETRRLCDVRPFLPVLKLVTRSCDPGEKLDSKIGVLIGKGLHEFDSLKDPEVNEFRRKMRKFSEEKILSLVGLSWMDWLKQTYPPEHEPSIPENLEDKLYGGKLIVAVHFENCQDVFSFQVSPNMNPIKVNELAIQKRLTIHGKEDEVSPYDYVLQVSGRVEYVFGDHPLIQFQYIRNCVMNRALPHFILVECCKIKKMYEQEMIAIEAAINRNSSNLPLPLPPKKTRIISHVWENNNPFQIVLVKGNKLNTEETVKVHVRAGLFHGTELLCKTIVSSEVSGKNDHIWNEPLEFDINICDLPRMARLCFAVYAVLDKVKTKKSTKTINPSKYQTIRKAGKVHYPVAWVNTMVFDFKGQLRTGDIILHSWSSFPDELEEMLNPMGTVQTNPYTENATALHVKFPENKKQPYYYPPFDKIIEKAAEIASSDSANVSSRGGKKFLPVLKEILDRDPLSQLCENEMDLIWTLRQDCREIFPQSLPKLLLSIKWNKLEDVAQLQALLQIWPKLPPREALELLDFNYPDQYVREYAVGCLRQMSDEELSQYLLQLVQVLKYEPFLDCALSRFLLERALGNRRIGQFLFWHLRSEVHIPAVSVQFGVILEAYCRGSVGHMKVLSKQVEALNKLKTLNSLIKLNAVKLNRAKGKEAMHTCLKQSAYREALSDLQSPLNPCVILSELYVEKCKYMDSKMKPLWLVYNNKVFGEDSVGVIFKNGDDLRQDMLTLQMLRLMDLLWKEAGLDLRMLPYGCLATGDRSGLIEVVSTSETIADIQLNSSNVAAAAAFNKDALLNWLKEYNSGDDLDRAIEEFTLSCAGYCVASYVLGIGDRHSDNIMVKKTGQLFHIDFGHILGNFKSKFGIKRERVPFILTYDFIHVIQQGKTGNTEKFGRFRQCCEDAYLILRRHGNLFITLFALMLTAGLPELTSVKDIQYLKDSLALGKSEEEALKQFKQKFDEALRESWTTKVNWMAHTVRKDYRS
# ERBB2 (human), sequence (P04626 whole entry, looked up): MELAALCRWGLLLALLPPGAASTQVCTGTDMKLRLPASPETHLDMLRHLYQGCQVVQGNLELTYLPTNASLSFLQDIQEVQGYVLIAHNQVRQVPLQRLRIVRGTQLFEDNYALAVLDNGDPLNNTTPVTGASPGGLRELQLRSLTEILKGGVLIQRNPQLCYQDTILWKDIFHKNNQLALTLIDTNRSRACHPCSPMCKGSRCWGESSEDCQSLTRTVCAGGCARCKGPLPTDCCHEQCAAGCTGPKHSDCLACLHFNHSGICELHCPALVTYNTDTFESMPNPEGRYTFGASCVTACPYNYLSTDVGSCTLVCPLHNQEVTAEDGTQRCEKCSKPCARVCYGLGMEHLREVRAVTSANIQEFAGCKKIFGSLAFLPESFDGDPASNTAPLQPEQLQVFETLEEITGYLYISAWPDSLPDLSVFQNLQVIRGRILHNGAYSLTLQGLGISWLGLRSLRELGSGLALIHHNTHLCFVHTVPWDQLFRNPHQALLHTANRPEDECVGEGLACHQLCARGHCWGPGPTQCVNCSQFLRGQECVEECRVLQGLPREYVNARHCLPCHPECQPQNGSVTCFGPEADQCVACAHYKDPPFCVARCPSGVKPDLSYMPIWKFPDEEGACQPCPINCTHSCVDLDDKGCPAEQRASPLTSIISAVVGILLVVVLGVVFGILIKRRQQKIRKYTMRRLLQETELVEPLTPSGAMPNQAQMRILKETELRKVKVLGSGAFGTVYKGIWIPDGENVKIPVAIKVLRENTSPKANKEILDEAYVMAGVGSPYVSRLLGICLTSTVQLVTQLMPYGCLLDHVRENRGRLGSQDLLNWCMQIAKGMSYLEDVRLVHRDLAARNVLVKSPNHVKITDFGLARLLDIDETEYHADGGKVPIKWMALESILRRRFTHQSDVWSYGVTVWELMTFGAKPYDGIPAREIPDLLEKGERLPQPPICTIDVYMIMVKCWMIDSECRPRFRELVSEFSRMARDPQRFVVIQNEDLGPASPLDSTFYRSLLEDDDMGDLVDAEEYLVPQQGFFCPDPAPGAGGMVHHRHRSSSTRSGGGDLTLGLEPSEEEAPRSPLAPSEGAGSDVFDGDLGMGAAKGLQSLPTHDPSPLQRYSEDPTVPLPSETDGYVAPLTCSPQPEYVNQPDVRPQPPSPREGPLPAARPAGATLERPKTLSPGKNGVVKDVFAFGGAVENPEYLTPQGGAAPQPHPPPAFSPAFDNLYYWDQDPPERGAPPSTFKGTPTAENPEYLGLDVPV
# MAPK12 (human), sequence (P53778 whole entry, looked up): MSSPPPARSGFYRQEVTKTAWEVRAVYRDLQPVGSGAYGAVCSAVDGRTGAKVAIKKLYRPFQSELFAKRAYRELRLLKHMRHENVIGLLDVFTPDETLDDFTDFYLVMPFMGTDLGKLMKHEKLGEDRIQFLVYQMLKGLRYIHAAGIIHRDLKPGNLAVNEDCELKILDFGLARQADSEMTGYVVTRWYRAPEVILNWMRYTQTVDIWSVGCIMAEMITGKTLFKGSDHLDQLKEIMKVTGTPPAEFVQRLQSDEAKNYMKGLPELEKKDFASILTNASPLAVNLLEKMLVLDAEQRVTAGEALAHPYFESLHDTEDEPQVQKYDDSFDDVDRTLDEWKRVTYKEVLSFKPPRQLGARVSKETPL
# GAK (human), sequence (O14976 whole entry, looked up): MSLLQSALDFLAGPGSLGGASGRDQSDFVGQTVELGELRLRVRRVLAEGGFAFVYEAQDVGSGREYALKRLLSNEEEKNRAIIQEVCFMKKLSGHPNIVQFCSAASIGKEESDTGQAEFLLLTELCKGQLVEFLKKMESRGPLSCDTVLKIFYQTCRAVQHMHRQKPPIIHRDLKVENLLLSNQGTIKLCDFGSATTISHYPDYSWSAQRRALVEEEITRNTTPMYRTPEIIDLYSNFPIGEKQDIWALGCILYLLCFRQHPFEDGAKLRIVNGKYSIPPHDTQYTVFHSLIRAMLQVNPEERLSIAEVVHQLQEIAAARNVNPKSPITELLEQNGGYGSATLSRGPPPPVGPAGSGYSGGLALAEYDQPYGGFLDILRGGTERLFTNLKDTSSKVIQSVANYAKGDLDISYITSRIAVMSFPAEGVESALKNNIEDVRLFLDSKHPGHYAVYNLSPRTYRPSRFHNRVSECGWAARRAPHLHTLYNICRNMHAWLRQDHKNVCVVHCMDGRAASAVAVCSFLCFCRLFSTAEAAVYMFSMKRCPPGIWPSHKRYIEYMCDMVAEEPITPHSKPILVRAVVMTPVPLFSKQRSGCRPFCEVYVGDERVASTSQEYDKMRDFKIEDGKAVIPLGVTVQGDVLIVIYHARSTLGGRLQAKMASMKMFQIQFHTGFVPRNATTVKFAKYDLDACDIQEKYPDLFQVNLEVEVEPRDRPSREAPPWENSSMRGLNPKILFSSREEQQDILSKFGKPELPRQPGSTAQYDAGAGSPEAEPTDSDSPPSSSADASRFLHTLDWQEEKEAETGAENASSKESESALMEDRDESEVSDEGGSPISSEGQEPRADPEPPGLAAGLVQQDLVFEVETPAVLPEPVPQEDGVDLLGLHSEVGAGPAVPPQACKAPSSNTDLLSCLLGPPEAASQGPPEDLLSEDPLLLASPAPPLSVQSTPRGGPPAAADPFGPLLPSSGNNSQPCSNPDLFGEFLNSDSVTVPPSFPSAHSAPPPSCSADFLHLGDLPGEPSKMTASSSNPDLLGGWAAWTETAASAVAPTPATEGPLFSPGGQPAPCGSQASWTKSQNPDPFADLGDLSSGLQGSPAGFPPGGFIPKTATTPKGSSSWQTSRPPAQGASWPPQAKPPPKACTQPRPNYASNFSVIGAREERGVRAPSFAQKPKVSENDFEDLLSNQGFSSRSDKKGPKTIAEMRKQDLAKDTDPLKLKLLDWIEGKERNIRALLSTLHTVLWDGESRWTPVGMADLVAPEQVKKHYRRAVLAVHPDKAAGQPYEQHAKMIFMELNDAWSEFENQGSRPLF
Compound,"kinase still bound, per cent of control (ACVR1 (human))","kinase still bound, per cent of control (ADCK3 (human))","kinase still bound, per cent of control (AURKB (human))","kinase still bound, per cent of control (CLK2 (human))","kinase still bound, per cent of control (DSTYK (human))","kinase still bound, per cent of control (ERBB2 (human))","kinase still bound, per cent of control (GAK (human))","kinase still bound, per cent of control (HIPK4 (human))","kinase still bound, per cent of control (IRAK1 (human))","kinase still bound, per cent of control (MAP3K7 (human))","kinase still bound, per cent of control (MAPK13 (human))","kinase still bound, per cent of control (MAPK14 (human))","kinase still bound, per cent of control [2]","kinase still bound, per cent of control (MINK1 (human))","kinase still bound, per cent of control (MTOR (human))","kinase still bound, per cent of control (OXSR1 (human))","kinase still bound, per cent of control (PAK7 (human))","kinase still bound, per cent of control (PDPK1 (human))","kinase still bound, per cent of control (PIK3CB (human))","kinase still bound, per cent of control (PRPF4B (human))",other results
NC(=O)Nc1cc(-c2cccc(F)c2)sc1C(=O)N[C@@H]1CCCNC1,4%,93%,4.8%,0.65%,1.3%,0%,2.9%,38%,0%,0%,100%,100%,0.6%,1.6%,72%,0.45%,0%,0.7%,68%,7.4%,"kinase still bound, per cent of control (DYRK1A (human)): 0%; kinase still bound, per cent of control [1]: 5.6%; kinase still bound, per cent of control (HCK (human)): 0%; kinase still bound, per cent of control (LIMK2 (human)): 88%; kinase still bound, per cent of control (MAPK12 (human)): 89%; kinase still bound, per cent of control (MARK2 (human)): 0.9%; kinase still bound, per cent of control (RIOK3 (human)): 0.4%; kinase still bound, per cent of control (RIPK2 (human)): 40%; kinase still bound, per cent of control (RPS6KA5 KD1 (human)): 49%; kinase still bound, per cent of control (SRMS (human)): 0%; kinase still bound, per cent of control (STK10 (human)): 0%; kinase still bound, per cent of control (STK35 (human)): 1.1%; kinase still bound, per cent of control (TGFBR1 (human)): 47%; kinase still bound, per cent of control (TIE1 (human)): 7.2%; kinase still bound, per cent of control (TLK2 (human)): 1.9%; kinase still bound, per cent of control [3]: 3.2%; kinase still bound, per cent of control (TYRO3 (human)): 3.2%"
COCC(=O)NC/C=C/c1ccc2ncnc(Nc3ccc(Oc4ccc(C)nc4)c(C)c3)c2c1,90%,100%,100%,75%,75%,0%,84%,95%,100%,100%,100%,100%,81%,77%,79%,100%,87%,100%,100%,93%,"kinase still bound, per cent of control [1]: 100%; kinase still bound, per cent of control [4]: 54%; kinase still bound, per cent of control (LIMK2 (human)): 100%; kinase still bound, per cent of control (MAPK12 (human)): 100%; kinase still bound, per cent of control (RIOK3 (human)): 100%; kinase still bound, per cent of control (RIPK2 (human)): 26%; kinase still bound, per cent of control (RPS6KA5 KD1 (human)): 99%; kinase still bound, per cent of control (SRMS (human)): 71%; kinase still bound, per cent of control (STK10 (human)): 4.2%; kinase still bound, per cent of control (STK3 (human)): 82%; kinase still bound, per cent of control (STK35 (human)): 65%; kinase still bound, per cent of control (TGFBR1 (human)): 100%; kinase still bound, per cent of control (TIE1 (human)): 100%; kinase still bound, per cent of control (TLK2 (human)): 100%; kinase still bound, per cent of control [3]: 24%; kinase still bound, per cent of control (TYRO3 (human)): 80%"
O=C1NC(=O)/C(=C/c2ccc3nccc(-c4ccncc4)c3c2)S1,36%,93%,39%,0.15%,61%,66%,0%,3.8%,0.25%,62%,100%,100%,94%,49%,5%,87%,91%,62%,7.1%,88%,"kinase still bound, per cent of control (DYRK1A (human)): 0%; kinase still bound, per cent of control [1]: 90%; kinase still bound, per cent of control (HCK (human)): 75%; kinase still bound, per cent of control [4]: 34%; kinase still bound, per cent of control (LIMK2 (human)): 100%; kinase still bound, per cent of control (MAPK12 (human)): 56%; kinase still bound, per cent of control (MARK2 (human)): 74%; kinase still bound, per cent of control (RIOK3 (human)): 1.4%; kinase still bound, per cent of control (RIPK2 (human)): 30%; kinase still bound, per cent of control (RPS6KA5 KD1 (human)): 100%; kinase still bound, per cent of control (SRMS (human)): 67%; kinase still bound, per cent of control (STK10 (human)): 0.1%; kinase still bound, per cent of control (STK3 (human)): 54%; kinase still bound, per cent of control (STK35 (human)): 49%; kinase still bound, per cent of control (TGFBR1 (human)): 20%; kinase still bound, per cent of control (TIE1 (human)): 100%; kinase still bound, per cent of control (TLK2 (human)): 87%; kinase still bound, per cent of control [3]: 51%; kinase still bound, per cent of control (TYRO3 (human)): 100%"
COc1cc2ncn(-c3cc(OCc4ccccc4C(F)(F)F)c(C(N)=O)s3)c2cc1OC,60%,61%,34%,47%,88%,100%,4.1%,15%,54%,66%,100%,100%,40%,63%,78%,100%,98%,66%,54%,20%,"kinase still bound, per cent of control (DYRK1A (human)): 75%; kinase still bound, per cent of control (HCK (human)): 72%; kinase still bound, per cent of control (KIT (human)): 30%; kinase still bound, per cent of control [4]: 30%; kinase still bound, per cent of control (MARK2 (human)): 50%; kinase still bound, per cent of control (RIOK3 (human)): 4.2%; kinase still bound, per cent of control (RIPK2 (human)): 41%; kinase still bound, per cent of control (RPS6KA5 KD1 (human)): 100%; kinase still bound, per cent of control (SRMS (human)): 58%; kinase still bound, per cent of control (STK10 (human)): 0%; kinase still bound, per cent of control (STK3 (human)): 1.8%; kinase still bound, per cent of control (STK35 (human)): 56%; kinase still bound, per cent of control (TGFBR1 (human)): 86%; kinase still bound, per cent of control (TIE1 (human)): 31%; kinase still bound, per cent of control (TLK2 (human)): 100%; kinase still bound, per cent of control [3]: 97%; kinase still bound, per cent of control (TYRO3 (human)): 72%"
